Results taken from US20190030053A1, “COMPOSITION FOR INCREASING EXPRESSION OF PGC-1alpha” (BENEBIOSIS CO., LTD., priority 2016, published 2019).

Assays:
PGC-1α and related genes = test: Gene expression in brain and hippocampus of epilepsy/convulsion brain disease models; format: in vivo, rat; details: Noda epileptic rats, oral 0.1 mg/kg/day, 10 weeks
Description: In order to investigate the gene expression changes by the treatment with SL (3′-SL & 6′-SL) compositions in epilepsy/convulsion brain disease models, 4-week-old normal SD rats and epilepsy/convulsion brain disease models (Noda epileptic rat, NER) were purchased from Central Lab Animal (Korea). Water was freely accessible, and a commercially available pellet feed (Dooyeul Biotech, Korea) was given for two weeks. At 6 weeks of age, the SD rats were divided into four groups (composed of 8 animals per group): Eight 6-week-old male SD rats (normal rats; initial body weight, average 176.3±13.3 g) treated with a normal diet were used for a control group. […]
(§1) Sialyllactose or DW was orally administered daily. […] The dietary intake and body weight change were measured every 5 days. […]
The gene expression changes by the treatment with SL (3′-SL & 6′-SL) compositions were quantitatively compared in two main organs (brain and hippocampus) associated with bran diseases. RNA was extracted by TRIzol agent (Invitrogen). cDNA was synthesized by using RNA, which has been extracted as above and quantified, and a reverse transcription system (Promega, USA). The expression patterns of PGC-1α and related genes were measured by using pre-designed primers and probes (Applied Biosystems; PGC-1α, Mm00447181_m1, […]) for the synthesized cDNA and analysis targets (Fndc5, PGC-1α, Erra, UCP1, BDNF, SOD2, and GPX1). […]

PGC-1α protein = PGC-1α protein expression in brain and hippocampus of old mouse models (western blot); format: in vivo; details: ICR mice, oral 0.1 mg/kg/day, 42 weeks
Experimental: In order to investigate the relative protein expression in the brain compared with before SL (3′-SL & 6′-SL) aministration, 4-week-old ICR mice were purchased from Central Lab Animal (Korea). Water was freely accessible, and a commercially available pellet feed (Dooyeul Biotech, Korea) was given for two weeks. […]
as §1
In FIG. 2b, BB1 6′ represents 6′-SL. The “PGC-1α protein expression level” and “GAPDH protein expression level” in each site were quantified, and the relative ratio of the values, (PGC-1α protein expression level)/(GAPDH protein expression level) was numerically expressed for the control group, 3′-SL administration group, and 6′-SL administration group. […]

Row | Compound | expression levels of PGC-1α and related genes vs SL non-administration (epilepsy/convulsion brain disease model) group (PGC-1α and related genes) | PGC-1α protein expression level (PGC-1α/GAPDH) vs negative control (PGC-1α protein)
1 | CC(=O)N[C@H]1[C@H]([C@H](O)[C@H](O)CO)O[C@@](O[C@H]2[C@@H](O)[C@@H](CO)O[C@@H](O[C@H]3[C@H](O)[C@@H](O)C(O)O[C@@H]3CO)[C@@H]2O)(C(=O)O)C[C@@H]1O (stereo partly drawn) [3′-SL, α-NeuNAc-(2→3)-β-D-Gal-(1→4)-D-Glc] | relatively low compared with 6′-SL | –
2 | CC(=O)N[C@H]1[C@H]([C@H](O)[C@H](O)CO)O[C@@](OC[C@H]2O[C@@H](O[C@H]3[C@H](O)[C@@H](O)[C@H](O)O[C@@H]3CO)[C@H](O)[C@@H](O)[C@H]2O)(C(=O)O)C[C@@H]1O [6′-SL, α-NeuNAc-(2→6)-β-D-Gal-(1→4)-D-Glc] | significant increases | much higher
